We go through 3 compounds from patent US8937072B2, “Substituted cyanoaniline compounds, preparation and use thereof” (Sinochem Corporation, priority 2011, dated 2015).

One test deals with canker of citrus fruit.
Experiment: not given
The following applies: at 500 ppm; cited from earlier work.
`N#Cc1c(F)c(F)c(Nc2ccccc2)c(C#N)c1F` [KC7]: the “bacteriostatic diameter against canker of citrus fruit” value is listed as 13.8 mm.
For `N#Cc1c(F)c(F)c(Nc2ccc(Cl)c(Cl)c2)c(C#N)c1F` [KC12], the “bacteriostatic diameter against canker of citrus fruit” value is 0 mm.

For the next test, the system named is cucumber gray mold. The test can be described thus: Activity in vitro (96-well, High Through Put): inhibition rate against cucumber gray mold. Format: cell-based. The following applies: 0.3 mg/L. In outline: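 Compound in acetone, methanol or DMF was combined with pathogen suspension under sterile conditions and held in a constant-temperature box. After 24 hours germination or growth was scored by eye against an untreated control to give the inhibition rate.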
`N#Cc1c(Cl)c(Cl)c(Nc2ccccc2)c(C#N)c1Cl` [KC1] returned an inhibition at 0.3 µg/mL of 0%.
In turn, `N#Cc1c(F)c(F)c(Nc2ccccc2)c(C#N)c1F` [KC7] came in with an inhibition at 0.3 µg/mL of 0%.
For the compound `N#Cc1c(F)c(F)c(Nc2ccc(Cl)c(Cl)c2)c(C#N)c1F` [KC12], the inhibition at 0.3 µg/mL was found to be 0%.

The same test, now with this note: 0.9 mg/L; read-out: the inhibition rate against cucumber gray mold (%).
For the compound `N#Cc1c(Cl)c(Cl)c(Nc2ccccc2)c(C#N)c1Cl` [KC1], the inhibition at 0.9 µg/mL is 0%.
As for `N#Cc1c(F)c(F)c(Nc2ccccc2)c(C#N)c1F` [KC7], the inhibition at 0.9 µg/mL stood at 0%.
For the compound `N#Cc1c(F)c(F)c(Nc2ccc(Cl)c(Cl)c2)c(C#N)c1F` [KC12], the inhibition at 0.9 µg/mL stood at 0%.

Still in this test, the particulars now being: 2.8 mg/L; read-out: the inhibition rate against cucumber gray mold (%).
For `N#Cc1c(Cl)c(Cl)c(Nc2ccccc2)c(C#N)c1Cl` [KC1], the inhibition at 2.8 µg/mL worked out at 0%.
As to `N#Cc1c(F)c(F)c(Nc2ccccc2)c(C#N)c1F` [KC7], the inhibition at 2.8 µg/mL is 0%.
On the same count and under the same terms, then `N#Cc1c(F)c(F)c(Nc2ccc(Cl)c(Cl)c2)c(C#N)c1F` [KC12], with 0%.

The same test, now with this note: 8.3 mg/L; read-out: the inhibition rate against cucumber gray mold (%).
For `N#Cc1c(Cl)c(Cl)c(Nc2ccccc2)c(C#N)c1Cl` [KC1], the inhibition at 8.3 µg/mL was determined as 0%.
As for `N#Cc1c(F)c(F)c(Nc2ccccc2)c(C#N)c1F` [KC7], the inhibition at 8.3 µg/mL came to 0%.
On to `N#Cc1c(F)c(F)c(Nc2ccc(Cl)c(Cl)c2)c(C#N)c1F` [KC12], for which the inhibition at 8.3 µg/mL worked out at 80%.

The same test, now with this note: in vitro, dose 2.8 mg/L; read-out: inhibition rate against cucumber gray mold.
As to `N#Cc1c(F)c(F)c(Nc2ccc(Cl)c(Cl)c2)c(C#N)c1F` [KC12], the inhibition at 2.8 µg/mL turned out to be 0%.

Still in this test, the particulars now being: in vitro, dose 8.3 mg/L; read-out: inhibition rate against cucumber gray mold.
Regarding `N#Cc1c(F)c(F)c(Nc2ccccc2)c(C#N)c1F` [KC7], the inhibition at 8.3 µg/mL was 0%.

The test is the same for the next values; noted with them: in vitro, dose 25 mg/L.
On to `N#Cc1c(Cl)c(Cl)c(Nc2ccccc2)c(C#N)c1Cl` [KC1], for which the inhibition at 25 µg/mL turned out to be 0%.

In another test the test system is rice blast. As to the kind of experiment: microbe, parasite or virus in culture. Format: cell-based. The note with it: Pyricularia oryzae, read-out: inhibition rate against rice blast.
For the compound `N#Cc1c(Cl)c(Cl)c(Nc2ccccc2)c(C#N)c1Cl` [KC1], the inhibition at 25 µg/mL worked out at 0%.
Same read-out and setting: then `N#Cc1c(F)c(F)c(Nc2ccc(Cl)c(Cl)c2)c(C#N)c1F` [KC12], with 0%.

Still in this test, the particulars now being: Pyricularia oryzae, read-out: the inhibition rate against rice blast (%) 0.03 mg/L.
Turning to `N#Cc1c(Cl)c(Cl)c(Nc2ccccc2)c(C#N)c1Cl` [KC1], the inhibition at 0.03 µg/mL is 0%.
For the compound `N#Cc1c(F)c(F)c(Nc2ccccc2)c(C#N)c1F` [KC7], the inhibition at 0.03 µg/mL worked out at 0%.
`N#Cc1c(F)c(F)c(Nc2ccc(Cl)c(Cl)c2)c(C#N)c1F` [KC12]: the inhibition at 0.03 µg/mL was 0%.

Staying with this test, now noted: Pyricularia oryzae, read-out: the inhibition rate against rice blast (%) 0.1 mg/L.
As for `N#Cc1c(Cl)c(Cl)c(Nc2ccccc2)c(C#N)c1Cl` [KC1], the inhibition at 0.1 µg/mL stood at 0%.
`N#Cc1c(F)c(F)c(Nc2ccccc2)c(C#N)c1F` [KC7]: the inhibition at 0.1 µg/mL stood at 0%.
In the case of `N#Cc1c(F)c(F)c(Nc2ccc(Cl)c(Cl)c2)c(C#N)c1F` [KC12], the inhibition at 0.1 µg/mL is 0%.

The test is the same for the next values; noted with them: Pyricularia oryzae, read-out: the inhibition rate against rice blast (%) 0.3 mg/L.
As to `N#Cc1c(Cl)c(Cl)c(Nc2ccccc2)c(C#N)c1Cl` [KC1], the inhibition at 0.3 µg/mL worked out at 0%.
For the compound `N#Cc1c(F)c(F)c(Nc2ccccc2)c(C#N)c1F` [KC7], the inhibition at 0.3 µg/mL is 0%.
For the compound `N#Cc1c(F)c(F)c(Nc2ccc(Cl)c(Cl)c2)c(C#N)c1F` [KC12], the inhibition at 0.3 µg/mL was determined as 0%.

Another test relates to pear scab.
Experiment: not given
The following applies: in vivo; cited from earlier work.
Turning to `N#Cc1c(F)c(F)c(Nc2ccccc2)c(C#N)c1F` [KC7], the “control against pear scab” value is listed as 100%.

The subject of a further test is cucumber downy mildew. As to the kind of experiment: Protectant activity in vivo (whole plant) against cucumber downy mildew. The note with it: Cucumis sativus, 168 h; 12.5 mg/L. In outline: (§1)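 Compound stock in organic solvent (≤5% v/v) diluted in water with 0.1% Tween-80 and sprayed onto whole host plants. Fungal inoculation 24 h later; humidity chamber then greenhouse as the pathogen requires. Activity rated visually, usually after 7 days.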
Regarding `N#Cc1c(Cl)c(Cl)c(Nc2ccccc2)c(C#N)c1Cl` [KC1], the pest or weed control at 12.5 µg/mL stood at 0%.
`N#Cc1c(F)c(F)c(Nc2ccccc2)c(C#N)c1F` [KC7] showed a pest or weed control at 12.5 µg/mL of 0%.
Turning to `N#Cc1c(F)c(F)c(Nc2ccc(Cl)c(Cl)c2)c(C#N)c1F` [KC12], the pest or weed control at 12.5 µg/mL worked out at 0%.

Staying with this test, now noted: Cucumis sativus, 168 h; 25 mg/L; read-out: the protectant activity (%) against cucumber downy mildew.
In the case of `N#Cc1c(Cl)c(Cl)c(Nc2ccccc2)c(C#N)c1Cl` [KC1], the pest or weed control at 25 µg/mL is 0%.
Take `N#Cc1c(F)c(F)c(Nc2ccccc2)c(C#N)c1F` [KC7]: the pest or weed control at 25 µg/mL was found to be 0%.
As to `N#Cc1c(F)c(F)c(Nc2ccc(Cl)c(Cl)c2)c(C#N)c1F` [KC12], the pest or weed control at 25 µg/mL worked out at 0%.

Staying with this test, now noted: Cucumis sativus, 168 h; 50 mg/L; read-out: the protectant activity (%) against cucumber downy mildew.
As to `N#Cc1c(Cl)c(Cl)c(Nc2ccccc2)c(C#N)c1Cl` [KC1], the pest or weed control at 50 µg/mL is 0%.
For `N#Cc1c(F)c(F)c(Nc2ccccc2)c(C#N)c1F` [KC7], the pest or weed control at 50 µg/mL came to 10%.
On to `N#Cc1c(F)c(F)c(Nc2ccc(Cl)c(Cl)c2)c(C#N)c1F` [KC12], for which the pest or weed control at 50 µg/mL was 0%.

Still in this test, the particulars now being: Cucumis sativus, 168 h; 100 mg/L; read-out: the protectant activity (%) against cucumber downy mildew.
Regarding `N#Cc1c(Cl)c(Cl)c(Nc2ccccc2)c(C#N)c1Cl` [KC1], the pest or weed control at 100 µg/mL was determined as 0%.
Take `N#Cc1c(F)c(F)c(Nc2ccccc2)c(C#N)c1F` [KC7]: the pest or weed control at 100 µg/mL was determined as 20%.
On the same count and under the same terms, the same measure for `N#Cc1c(F)c(F)c(Nc2ccc(Cl)c(Cl)c2)c(C#N)c1F` [KC12]: 0%.

Staying with this test, now noted: Cucumis sativus, 168 h; dose 25 mg/L; read-out: protectant activity against cucumber downy mildew in vivo.
With `N#Cc1c(F)c(F)c(Nc2ccccc2)c(C#N)c1F` [KC7], the pest or weed control at 25 µg/mL was found to be 0%.

The test is the same for the next values; noted with them: Cucumis sativus, 168 h; dose 50 mg/L; read-out: protectant activity against cucumber downy mildew in vivo.
Turning to `N#Cc1c(F)c(F)c(Nc2ccccc2)c(C#N)c1F` [KC7], the pest or weed control at 50 µg/mL was 10%.

The test is the same for the next values; noted with them: Cucumis sativus, 168 h; dose 100 mg/L; read-out: protectant activity against cucumber downy mildew in vivo.
Regarding `N#Cc1c(F)c(F)c(Nc2ccccc2)c(C#N)c1F` [KC7], the pest or weed control at 100 µg/mL was determined as 20%.
Regarding `N#Cc1c(F)c(F)c(Nc2ccc(Cl)c(Cl)c2)c(C#N)c1F` [KC12], the pest or weed control at 100 µg/mL turned out to be 20%.

Still in this test, the particulars now being: Cucumis sativus, 168 h; dose 400 mg/L.
As to `N#Cc1c(Cl)c(Cl)c(Nc2ccccc2)c(C#N)c1Cl` [KC1], the pest or weed control at 400 µg/mL worked out at 0%.

Another test deals with wheat powdery mildew. As to the kind of experiment: Protectant activity in vivo (whole plant) against wheat powdery mildew. The note with it: Triticum aestivum, 168 h; dose 400 mg/L. The procedure: The method is as followed: The whole plant is used in this test. The compound is dissolved in a proper solvent to get mother solution. The proper solvent is selected from acetone, methanol, DMF and so on according to their dissolving capability to the sample. The volume rate of solvent and testing solution (v/v) is equal to or less than 5%. The mother solution is diluted with water containing 0.1% tween-80 to get the testing solution whose concentration is designed. The testing solution is sprayed to the host plant by a special plant sprayer. The plant is inoculated with fungus after 24 hours. According to the infecting characteristic of fungus, the plant is stored in a humidity chamber and then transferred into greenhouse after infection is finished. And the other plants are placed in greenhouse directly. The activity of compound is obtained by eyeballing after 7 days in common.
`N#Cc1c(Cl)c(Cl)c(Nc2ccccc2)c(C#N)c1Cl` [KC1]: the pest or weed control at 400 µg/mL came out at 0%.
The same measure, in the same setting: then `N#Cc1c(F)c(F)c(Nc2ccccc2)c(C#N)c1F` [KC7], with 0%; and `N#Cc1c(F)c(F)c(Nc2ccc(Cl)c(Cl)c2)c(C#N)c1F` [KC12], with 0%.

In another test the test system is plasmopora viticola.
Experiment: not given
The following applies: at high dose; cited from earlier work.
Regarding `N#Cc1c(Cl)c(Cl)c(Nc2ccccc2)c(C#N)c1Cl` [KC1], the “activity on relevant diseases such as plasmopora viticola” value was “some activity”.

For another test, the system named is corn rust. The test can be described thus: Protectant activity in vivo (whole plant) against corn rust. The note with it: Zea mays, 168 h; 6.25 mg/L. In outline:
as §1
For the compound `N#Cc1c(Cl)c(Cl)c(Nc2ccccc2)c(C#N)c1Cl` [KC1], the pest or weed control at 6.25 µg/mL came out at 0%.
For `N#Cc1c(F)c(F)c(Nc2ccc(Cl)c(Cl)c2)c(C#N)c1F` [KC12], the pest or weed control at 6.25 µg/mL was 0%.

The test is the same for the next values; noted with them: Zea mays, 168 h; 25 mg/L.
`N#Cc1c(Cl)c(Cl)c(Nc2ccccc2)c(C#N)c1Cl` [KC1] returned a pest or weed control at 25 µg/mL of 0%.
With `N#Cc1c(F)c(F)c(Nc2ccc(Cl)c(Cl)c2)c(C#N)c1F` [KC12], the pest or weed control at 25 µg/mL is 0%.

Still in this test, the particulars now being: Zea mays, 168 h; 100 mg/L.
For the compound `N#Cc1c(Cl)c(Cl)c(Nc2ccccc2)c(C#N)c1Cl` [KC1], the pest or weed control at 100 µg/mL is 0%.
Still for that read-out and setting: then `N#Cc1c(F)c(F)c(Nc2ccc(Cl)c(Cl)c2)c(C#N)c1F` [KC12], with 0%.

Staying with this test, now noted: Zea mays, 168 h; 400 mg/L; read-out: the protectant activity (%) against corn rust.
For `N#Cc1c(Cl)c(Cl)c(Nc2ccccc2)c(C#N)c1Cl` [KC1], the pest or weed control at 400 µg/mL is 0%.
`N#Cc1c(F)c(F)c(Nc2ccc(Cl)c(Cl)c2)c(C#N)c1F` [KC12]: the pest or weed control at 400 µg/mL is 0%.

Staying with this test, now noted: Zea mays, 168 h; dose 400 mg/L; read-out: protectant activity against corn rust in vivo.
For the compound `N#Cc1c(Cl)c(Cl)c(Nc2ccccc2)c(C#N)c1Cl` [KC1], the pest or weed control at 400 µg/mL is 0%.
Still for that read-out and setting: the same measure for `N#Cc1c(F)c(F)c(Nc2ccc(Cl)c(Cl)c2)c(C#N)c1F` [KC12]: 0%.

For a further test, the system named is blast of rice.
Experiment: not given
The following applies: at 500 ppm; cited from earlier work.
As to `N#Cc1c(F)c(F)c(Nc2ccccc2)c(C#N)c1F` [KC7], the “bacteriostatic diameter against blast of rice” value is recorded as 22.5 mm.
In the case of `N#Cc1c(F)c(F)c(Nc2ccc(Cl)c(Cl)c2)c(C#N)c1F` [KC12], the “bacteriostatic diameter against blast of rice” value was 15.5 mm.
